PubChem BioAssay (NCI)
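Method: 48-hour compound exposure of cells in 96-well plates, five concentrations, linear interpolation of endpoints. TGI: concentration producing complete growth inhibition.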

Assays:
Assay in all cases: growth of human tumour cells (NCI), 48 h
[1] = tested on: HS 578T breast
[2] = tested on: DLD-1 colon
[3] = tested on: DMS 114 small cell lung
[4] = tested on: DMS 273 small cell lung
[5] = tested on: HOP-18 NSCLC
[6] = tested on: KM20L2 colon
[7] = tested on: LXFL 529 NSCLC
[8] = tested on: M19-MEL melanoma
[9] = tested on: SNB-78 CNS
[10] = tested on: XF 498 CNS
[11] = tested on: RXF-631 renal

## CCOC(=O)Cn1sc2ncc([N+](=O)[O-])cc2c1=O
[1]
  TGI: > 100 µM

## C/C(=N\NC(=S)N1CC2CCC(CC2)C1)c1ccncn1
[1]
  TGI: > 24.4 µM

## CC1=CC(=O)NCCN1C
[2]
  TGI: > 100 µM
[3]
  TGI: > 100 µM
[4]
  TGI: > 100 µM
[5]
  TGI: > 100 µM
[6]
  TGI: > 100 µM
[7]
  TGI: > 100 µM
[8]
  TGI: > 100 µM
[9]
  TGI: > 100 µM
[10]
  TGI: > 100 µM

## CCOC(=O)NC(Nc1ccc(S(=O)(=O)Nc2ncccn2)cc1)(C(=O)OCC)C(F)(F)F (stereo not drawn)
[1]
  TGI: > 100 µM

## CCCCCCCCCCCCCCCCCc1cccc(OCOCCOC)c1CO
[1]
  TGI: > 100 µM

## NS(=O)(=O)c1nnc(NC(=O)c2ccccc2)s1
[1]
  TGI: > 100 µM

## Cc1nc(N)c(N2CCNCC2)c(=O)[nH]1
[1]
  TGI: > 100 µM

## CC(=O)OCC1OC(N2C(c3ccccc3)=CC(c3ccccc3)C(C#N)=C2S)C(OC(C)=O)C(OC(C)=O)C1OC(C)=O (stereo not drawn)
[1]
  TGI: 29.8 µM

## COC1(OC)C2(Cl)CCC1(Cl)C(OC(C)=O)C2 (stereo not drawn)
[1]
  TGI: > 100 µM

## O=C1C(Br)=CC2(C=C1Br)CCN=c1c(O)c3c(c(O)c12)=NC=N3
[1]
  TGI: 71.5 µM

## Oc1cc(O)c2c(c1)O[C@H](c1cc(O)c(O)c(O)c1)[C@H](O)C2
[1]
  TGI: > 100 µM

## CCN(CC)Cc1cc(Nc2ccnc3ccc4c(nnn4C)c23)ccc1O
[1]
  TGI: 42.1 µM

## CC1=CC(=O)NP(=O)(Oc2ccc(C)cc2)N1 (stereo not drawn)
[2]
  TGI: > 100 µM
[3]
  TGI: > 100 µM
[4]
  TGI: > 100 µM
[5]
  TGI: > 100 µM
[6]
  TGI: > 100 µM
[7]
  TGI: > 100 µM
[8]
  TGI: > 100 µM
[11]
  TGI: > 100 µM
[9]
  TGI: > 100 µM
[10]
  TGI: > 100 µM

## O=C1SCC(O)=C1/C=N/Nc1nc2ccccc2o1
[1]
  TGI: > 100 µM

## Cc1ccc(S(=O)(=O)OC2C3OC(C)(C)OC3OC2C(c2cc(O)c3c(c2O)C(=O)c2ccccc2C3=O)c2cc(O)c3c(c2O)C(=O)c2ccccc2C3=O)cc1 (stereo not drawn)
[1]
  TGI: > 10 µM

## COc1ccccc1N1C(=O)/C(=C\c2cccc(Oc3ccccc3)c2)SC1c1ccccc1 (stereo not drawn)
[1]
  TGI: > 100 µM

## CCOC(=O)C(Cl)(NC(=O)c1ccc(F)cc1)C(F)(F)F (stereo not drawn)
[1]
  TGI: > 100 µM

## Clc1cccc(Cl)c1C1SCC2=Nc3ccccc3CN21 (stereo not drawn)
[1]
  TGI: 62.2 µM

## Cc1cccc2c(N)c3cccc(C(=O)NCCCNCCN)c3nc12
[1]
  TGI: 3.71 µM

## N#CCCN(c1ccc(/C=C2\N=C(c3ccc(Cl)cc3)OC2=O)cc1)S(=O)(=O)c1ccccc1
[2]
  TGI: > 100 µM
[3]
  TGI: > 100 µM
[4]
  TGI: > 100 µM
[6]
  TGI: > 100 µM
[7]
  TGI: > 100 µM
[8]
  TGI: > 100 µM
[11]
  TGI: > 100 µM
[10]
  TGI: > 100 µM

## O=C1CCC(c2ccccc2)C(O)(C(=O)O)C1 (stereo not drawn)
[2]
  TGI: > 100 µM
[4]
  TGI: > 100 µM
[5]
  TGI: > 100 µM
[6]
  TGI: > 100 µM
[7]
  TGI: > 100 µM
[8]
  TGI: > 100 µM
[11]
  TGI: > 100 µM
[9]
  TGI: > 100 µM

## C1=C2C3=[N+](CCCC3)CC2Cc2ccsc21 (stereo not drawn)
[1]
  TGI: > 100 µM

## O=C1NC(Nc2cccc(Cl)c2)=N/C1=C\c1ccc(Cl)c(Cl)c1
[1]
  TGI: 13.4 µM

## O=C(CC(=O)n1nc(-c2ccccc2)c(N=Nc2ccc(Cl)cc2)c1-c1ccccc1)Nc1cccc(Cl)c1
[1]
  TGI: > 100 µM

## Clc1ccc2c(NCCCCN=Cc3ccccc3)ccnc2c1
[1]
  TGI: 36.6 µM

## CC1CN=C(Nc2ccc(S(N)(=O)=O)cc2)S1 (stereo not drawn)
[1]
  TGI: > 100 µM

## CC(C(=O)N1c2ccccc2Sc2ccccc21)N1c2ccccc2Sc2ccccc21 (stereo not drawn)
[1]
  TGI: > 100 µM

## Cc1cc(=O)[nH]c(NNC(C#N)c2ccc(O)cc2)n1 (stereo not drawn)
[2]
  TGI: > 100 µM
[3]
  TGI: > 100 µM
[4]
  TGI: > 100 µM
[5]
  TGI: > 100 µM
[6]
  TGI: > 100 µM
[7]
  TGI: > 100 µM
[8]
  TGI: > 100 µM
[9]
  TGI: > 100 µM

## CC(=O)NCc1nc(C#N)c(N)o1
[1]
  TGI: > 100 µM

## CCOC(=O)c1c(SC(=O)/C=C/c2ccccc2)n(-c2ccccc2)c(=S)n(-c2ccccc2)c1=O
[1]
  TGI: > 100 µM

## c1ccc2c(c1)nc1n2CNCC1
[1]
  TGI: > 100 µM

## S=C(/N=c1/sc(Nc2ccccc2)nc2sc3c(c12)CCCC3)Nc1ccccc1
[1]
  TGI: > 62.5 µM

## O=C(c1ccccc1)c1c2ccccn2c2cccc[n+]12
[1]
  TGI: > 100 µM

## COC12C=CC(CC1)C(C)(C)C2=O (stereo not drawn)
[1]
  TGI: > 100 µM

## O=P(c1ccccc1)(c1ccccc1)C(NCc1ccccc1)c1ccc(F)cc1 (stereo not drawn)
[1]
  TGI: 98.2 µM

## Cc1oc2nc(N(C)C)nc(Cl)c2c1C
[1]
  TGI: > 100 µM

## O=C(c1ccc(Cl)cc1Cl)N(C(=O)N1CCCCC1)c1ccccc1
[1]
  TGI: > 100 µM

## O=C(CSc1nnc(Cc2ccccc2)o1)Nc1cccc([N+](=O)[O-])c1
[2]
  TGI: > 100 µM
[3]
  TGI: > 100 µM
[4]
  TGI: > 100 µM
[5]
  TGI: > 100 µM
[6]
  TGI: > 100 µM
[7]
  TGI: > 100 µM
[8]
  TGI: > 100 µM
[9]
  TGI: > 100 µM
